Measured values published in ChEMBL document CHEMBL1201862, “PubChem BioAssay data set” (2004).
Calls of active or inactive are those of the source.

How the values were obtained:
[1] = HEp-2 cell cytotoxicity, dose response, cytotoxicity control for RSV inhibitor project, HTS (AID 2410); assay type: functional; settings: human respiratory syncytial virus
Vero = assay: cells; assay type: functional, cell-based; settings: Chlorocebus sabaeus
[2] = molecular target: T1, Dual specificity protein phosphatase 6 (Rattus norvegicus, UniProt Q64346); assay: MKP-3 phosphatase inhibitors, primary screen, biochemical, rat enzyme, in vitro (AID 425)
T1 sequence (Q64346 whole entry): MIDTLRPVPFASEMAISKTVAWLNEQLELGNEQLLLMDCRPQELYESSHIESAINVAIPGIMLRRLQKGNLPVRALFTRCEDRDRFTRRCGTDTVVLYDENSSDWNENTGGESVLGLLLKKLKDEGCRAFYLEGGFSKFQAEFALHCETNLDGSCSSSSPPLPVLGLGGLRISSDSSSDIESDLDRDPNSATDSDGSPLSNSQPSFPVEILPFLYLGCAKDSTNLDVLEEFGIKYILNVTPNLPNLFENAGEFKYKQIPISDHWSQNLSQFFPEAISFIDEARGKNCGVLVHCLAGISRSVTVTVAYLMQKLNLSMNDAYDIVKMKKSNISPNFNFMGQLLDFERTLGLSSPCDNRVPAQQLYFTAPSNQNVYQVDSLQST

[3] = molecular target: Endoplasmic reticulum aminopeptidase 1 (Homo sapiens, UniProt Q9NZ08); assay: ERAP1 aminopeptidase inhibitors, dose response, biochemical, cherry-pick, set 2, plate reader (AID 743314)
Chain of Endoplasmic reticulum aminopeptidase 1 (Q9NZ08 whole entry): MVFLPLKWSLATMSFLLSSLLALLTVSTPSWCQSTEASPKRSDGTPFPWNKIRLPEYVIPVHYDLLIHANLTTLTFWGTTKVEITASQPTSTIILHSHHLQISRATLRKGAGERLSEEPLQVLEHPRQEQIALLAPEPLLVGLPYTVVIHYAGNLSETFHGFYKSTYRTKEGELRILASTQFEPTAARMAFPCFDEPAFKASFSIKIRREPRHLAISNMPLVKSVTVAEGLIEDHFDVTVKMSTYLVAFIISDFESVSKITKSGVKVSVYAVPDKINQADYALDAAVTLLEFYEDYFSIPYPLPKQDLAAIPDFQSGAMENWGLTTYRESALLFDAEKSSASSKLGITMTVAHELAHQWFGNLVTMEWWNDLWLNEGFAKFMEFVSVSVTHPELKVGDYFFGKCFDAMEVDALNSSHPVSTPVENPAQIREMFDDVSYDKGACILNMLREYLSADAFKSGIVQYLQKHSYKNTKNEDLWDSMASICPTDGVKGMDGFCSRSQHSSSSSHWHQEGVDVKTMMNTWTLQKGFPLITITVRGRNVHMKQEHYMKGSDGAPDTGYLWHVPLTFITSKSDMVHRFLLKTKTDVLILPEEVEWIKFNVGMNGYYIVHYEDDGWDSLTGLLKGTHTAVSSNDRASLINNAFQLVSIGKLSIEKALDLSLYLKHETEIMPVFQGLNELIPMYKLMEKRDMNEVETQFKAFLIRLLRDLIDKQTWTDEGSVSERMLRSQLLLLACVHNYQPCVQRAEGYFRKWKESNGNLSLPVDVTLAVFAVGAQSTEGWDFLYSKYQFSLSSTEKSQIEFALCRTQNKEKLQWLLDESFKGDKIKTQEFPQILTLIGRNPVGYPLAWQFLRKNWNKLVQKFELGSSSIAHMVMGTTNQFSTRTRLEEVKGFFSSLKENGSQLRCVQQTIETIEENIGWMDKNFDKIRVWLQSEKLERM

HeLa = assay: HeLa cell cytotoxicity, dose response, cytotoxicity control, 24 h, cherry-picked samples (AID 504726); assay type: functional, cell-based; settings: Homo sapiens;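 further: potency for cytotoxicity as loss of luminescence signal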
[4] = NIH-3T3 fibroblast cytotoxicity, dose response, cytotoxicity control, cell-based, fluorescence, Alamar Blue, secondary assay (AID 2327); assay type: functional;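 further: NIH-3T3 mouse fibroblasts cultured with fluconazole at 8 µg/mL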
[5] = C. albicans growth with fluconazole, confirmation, fluorescence, retest (AID 2467); assay type: functional, cell-based
[6] = microbe, parasite or virus in culture; assay type: functional; settings: Mycobacterium tuberculosis
INS1 = assay: beta cell apoptosis inhibitors, cytokine rescue, dose response, luminescence, retest (AID 449756); assay type: functional, cell-based; settings: Rattus norvegicus;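 further: cell death triggered by IL-1 beta plus TNF-alpha plus IFN-gamma mixture; protective hits raise ATP signal compared with cytokine alone wells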
[7] = molecular target: T2, DNA repair protein RAD52 homolog (Homo sapiens, UniProt P43351); assay type: functional, biochemical
T2 sequence (P43351 whole entry): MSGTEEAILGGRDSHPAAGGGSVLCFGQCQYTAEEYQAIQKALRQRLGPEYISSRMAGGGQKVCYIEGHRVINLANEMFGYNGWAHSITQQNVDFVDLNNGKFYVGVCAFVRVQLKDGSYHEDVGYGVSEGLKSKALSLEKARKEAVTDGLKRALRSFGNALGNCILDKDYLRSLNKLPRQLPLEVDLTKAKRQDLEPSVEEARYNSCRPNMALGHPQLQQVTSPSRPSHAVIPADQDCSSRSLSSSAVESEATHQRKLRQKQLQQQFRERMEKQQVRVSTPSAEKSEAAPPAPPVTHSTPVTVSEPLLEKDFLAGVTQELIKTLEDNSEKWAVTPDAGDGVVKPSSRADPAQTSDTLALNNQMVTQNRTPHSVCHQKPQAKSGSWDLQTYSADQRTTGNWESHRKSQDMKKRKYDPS

[8] = molecular target: T3, COUP transcription factor 2 (Homo sapiens, UniProt P24468); assay: Luminescence-based cell-based high throughput dose response assay to identify inhibitors of COUP-TFII (NR2F2).; assay type: functional;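 further: HEK293 cells transiently cotransfected with COUP-TFII expression vector and reporter; luciferase reporter luminescence driven by COUP-TFII from the pX2-168 reporter plasmid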
T3 sequence (P24468 whole entry): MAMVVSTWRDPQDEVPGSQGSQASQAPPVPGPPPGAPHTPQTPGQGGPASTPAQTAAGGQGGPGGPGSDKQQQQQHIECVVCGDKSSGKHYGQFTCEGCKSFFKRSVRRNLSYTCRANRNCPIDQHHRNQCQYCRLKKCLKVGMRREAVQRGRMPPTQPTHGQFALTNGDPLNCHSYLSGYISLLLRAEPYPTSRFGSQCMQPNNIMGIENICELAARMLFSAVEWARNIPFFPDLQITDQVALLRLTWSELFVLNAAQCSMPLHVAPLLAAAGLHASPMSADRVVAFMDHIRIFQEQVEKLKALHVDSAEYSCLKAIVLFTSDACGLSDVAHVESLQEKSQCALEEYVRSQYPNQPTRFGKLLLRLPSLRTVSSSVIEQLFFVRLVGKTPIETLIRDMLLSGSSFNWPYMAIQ

[9] = molecular target: Luciferin 4-monooxygenase (Photinus pyralis, UniProt P08659); assay: firefly luciferase enzyme inhibitors, dose response, biochemical, luminescence (AID 1891)
Chain of Luciferin 4-monooxygenase (P08659 whole entry): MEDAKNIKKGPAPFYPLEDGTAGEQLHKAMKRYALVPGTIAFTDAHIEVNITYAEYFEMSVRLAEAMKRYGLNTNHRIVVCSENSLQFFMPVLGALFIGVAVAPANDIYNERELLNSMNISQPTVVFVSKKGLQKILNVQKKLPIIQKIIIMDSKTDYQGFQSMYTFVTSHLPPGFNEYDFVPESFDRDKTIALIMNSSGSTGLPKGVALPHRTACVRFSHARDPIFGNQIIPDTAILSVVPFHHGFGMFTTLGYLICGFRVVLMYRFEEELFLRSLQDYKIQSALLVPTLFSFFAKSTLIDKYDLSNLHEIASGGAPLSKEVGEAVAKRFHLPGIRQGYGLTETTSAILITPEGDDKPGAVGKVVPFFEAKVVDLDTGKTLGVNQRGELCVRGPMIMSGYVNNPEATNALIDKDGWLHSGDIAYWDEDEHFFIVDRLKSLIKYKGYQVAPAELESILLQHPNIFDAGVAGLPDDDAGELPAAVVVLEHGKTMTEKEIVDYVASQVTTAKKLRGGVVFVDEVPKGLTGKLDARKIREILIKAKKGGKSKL

[10] = Luminescence Cell-Based Dose Confirmation HTS to Identify Inhibitors of Platelet Dense Granule Release. [Related pubchem assays: 1663 (Primary HTS), 1678 (Summary of Project)]; assay type: functional
Protein skinhead-1 = molecular target: T4, Protein skinhead-1 (Caenorhabditis elegans, UniProt P34707); assay type: functional
T4 sequence (P34707 whole entry): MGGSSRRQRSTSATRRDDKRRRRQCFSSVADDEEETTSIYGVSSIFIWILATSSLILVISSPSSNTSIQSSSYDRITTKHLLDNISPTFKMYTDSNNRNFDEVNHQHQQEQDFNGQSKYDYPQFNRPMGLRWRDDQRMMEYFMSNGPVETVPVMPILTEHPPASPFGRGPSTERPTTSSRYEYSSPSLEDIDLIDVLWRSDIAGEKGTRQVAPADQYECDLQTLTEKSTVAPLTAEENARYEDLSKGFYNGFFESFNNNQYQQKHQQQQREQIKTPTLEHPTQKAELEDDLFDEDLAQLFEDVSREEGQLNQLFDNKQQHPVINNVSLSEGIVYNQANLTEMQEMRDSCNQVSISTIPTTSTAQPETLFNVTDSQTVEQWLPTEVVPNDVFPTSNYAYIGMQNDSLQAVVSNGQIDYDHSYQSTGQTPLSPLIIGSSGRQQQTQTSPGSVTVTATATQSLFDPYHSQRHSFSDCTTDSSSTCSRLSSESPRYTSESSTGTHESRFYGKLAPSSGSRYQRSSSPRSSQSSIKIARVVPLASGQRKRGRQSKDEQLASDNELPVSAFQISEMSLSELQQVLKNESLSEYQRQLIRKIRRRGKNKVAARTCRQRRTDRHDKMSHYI

[11] = Luminescence-based cell-based high throughput dose response assay to identify activators of the DAF-12 from the parasite S. stercoralis (ssDAF-12).; assay type: functional
[12] = Shn3 3'UTR reporter inhibitors, dose response, cell-based, Clone20 osteoblasts, firefly luciferase, cherry-picked (AID 624132); assay type: functional;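 further: firefly luciferase luminescence from reporter carrying the Shn3 3'UTR in osteoblasts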
P388/ADR = assay: cells; assay type: functional; settings: Mus musculus
[13] = control 3'UTR Renilla luciferase suppression, dose response, counter-screen for Shn3 inhibitor project, cell-based, Clone20-Shn3RL, cherry-picked (AID 624133); assay type: functional
SN12K1 = assay: cells; assay type: functional; settings: Homo sapiens
P388 = assay: cells; assay type: functional; settings: Mus musculus
Paired box protein Pax-8 = Paired box protein Pax-8 (Homo sapiens, UniProt Q06710); assay: inhibitors of PAX8-driven TPO luciferase reporter, dose response, RMG-I cells, cherry-pick (AID 687027); assay type: functional, cell-based;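 further: luciferase reporter driven by Pax8 target thyroperoxidase promoter measured by SteadyGlo luminescence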
Chain of Paired box protein Pax-8 (Q06710 whole entry): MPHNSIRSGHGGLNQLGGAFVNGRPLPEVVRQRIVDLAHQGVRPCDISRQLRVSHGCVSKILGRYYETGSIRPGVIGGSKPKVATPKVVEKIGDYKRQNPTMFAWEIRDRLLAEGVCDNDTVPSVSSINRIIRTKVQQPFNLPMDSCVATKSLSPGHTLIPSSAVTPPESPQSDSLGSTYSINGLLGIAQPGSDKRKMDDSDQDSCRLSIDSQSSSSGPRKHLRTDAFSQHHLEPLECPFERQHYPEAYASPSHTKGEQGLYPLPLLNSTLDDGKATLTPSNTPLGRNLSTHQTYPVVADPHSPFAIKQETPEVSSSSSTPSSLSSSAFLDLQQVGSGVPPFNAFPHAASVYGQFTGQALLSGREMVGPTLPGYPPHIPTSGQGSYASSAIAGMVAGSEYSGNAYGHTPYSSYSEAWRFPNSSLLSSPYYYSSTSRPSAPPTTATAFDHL

[14] = Luminescence Cell-Based Dose Retest to Confirm Inhibitors of Cancer Stem Cells. [Related pubchem assays (depositor defined):AID2717, AID2721]; assay type: functional; settings: Homo sapiens
[15] = molecular target: Neurotensin receptor type 1 (Homo sapiens, UniProt P30989); assay type: functional;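 further: Image-based confirmatory dose-response assay measuring agonist activity at NTR1; NTR1-expressing U2OS osteosarcoma cells imaged for beta-arrestin GFP spot formation; agonist potency where compounds increase beta-arrestin recruitment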
Chain of Neurotensin receptor type 1 (P30989 whole entry): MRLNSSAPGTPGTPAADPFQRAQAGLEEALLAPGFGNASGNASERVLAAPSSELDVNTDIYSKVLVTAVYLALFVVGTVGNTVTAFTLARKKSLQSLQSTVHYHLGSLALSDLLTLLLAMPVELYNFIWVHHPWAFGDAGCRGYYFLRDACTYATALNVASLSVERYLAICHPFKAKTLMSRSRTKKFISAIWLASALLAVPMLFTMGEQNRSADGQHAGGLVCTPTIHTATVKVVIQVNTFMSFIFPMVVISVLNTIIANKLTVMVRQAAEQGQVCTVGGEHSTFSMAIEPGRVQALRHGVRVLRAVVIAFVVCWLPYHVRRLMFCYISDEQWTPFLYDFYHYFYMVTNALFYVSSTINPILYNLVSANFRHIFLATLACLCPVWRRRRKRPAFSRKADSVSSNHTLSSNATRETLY

[16] = cytotoxicity in OVCAR8 ovarian cancer cells, dose response, PAX8 project, cell-based, plate reader, dry powder samples (AID 743197); assay type: functional; settings: OVCAR-8
[17] = P. falciparum 3D7-ScDHODH growth inhibitors, dose response, SYBR Green, dry powder samples (AID 1159570); assay type: functional, cell-based;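 further: parasite growth measured after 72 hours of compound exposure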
[18] = HepG2 cell cytotoxicity, dose response, cytotoxicity control, plate reader, dry powder samples (AID 1159569); assay type: functional, cell-based;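 further: inhibitor potency with signal falling toward the positive control level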
[19] = P. falciparum Dd2 growth inhibitors, dose response, SYBR Green, cherry-picked samples (AID 1159567); assay type: functional, cell-based
[20] = P. falciparum Dd2 growth inhibitors, dose response, SYBR Green, dry powder samples (AID 1159566); assay type: functional, cell-based;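 further: potency for growth inhibition with lower SYBR green DNA signal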
[21] = P. falciparum ATP4 D1247Y mutant growth inhibitors, dose response, NITD609-resistant line, SYBR Green, dry powder (AID 1159571); assay type: functional, cell-based;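 further: parasites synchronized at ring stage by sorbitol before testing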

With `Cc1ccc(NC(=O)CN(C)C(=O)CSc2nc3ccccc3c(=O)n2Cc2ccco2)cc1` as the molecule, how does the CC50 [1] read?
Its CC50 is 36.7 µM (active).

And the IC50 (cells)?
The IC50 was 44.3 µM (active).

Which CC50 [1] does the source give for `O=C(CCNC(=O)c1ccc(Br)cc1)NC1CCCc2ccccc21` (stereo not drawn) here?
Its CC50 is 43.7 µM (active).

What about the IC50 (Vero) of the same molecule?
Its IC50 is 9.27 µM (active).

And the IC50 (cells)?
The IC50 was 6.76 µM (active).

Which IC50 [2] does the source give for `COc1ccc(Cc2nn3c(-c4cc(OC)c(OC)c(OC)c4)nnc3s2)cc1` here?
The IC50 was > 100 µM (not active).

With `CN(C)Cc1c(O)ccc2cc(-c3nc4ccccc4n3C)c(=O)oc12` as the molecule, how does the AC50 [3] read?
The AC50 was 1.56 µM (active).

For `Cc1ccc(/C=C/S(=O)(=O)N2CCC(C(=O)O)CC2)cc1`, which AC50 (HeLa) is on record?
The AC50 was > 350 µM (inactive).

Which EC50 [4] does the source give for `Oc1ccc(-[n+]2c(-c3ccccc3)cc(-c3ccccc3)cc2-c2ccccc2)cc1.[O-][Cl+3]([O-])([O-])[O-]` here?
Its EC50 is > 160 µM (inactive).

What about the EC50 [5] of the same molecule?
Its EC50 is 0.879 µM (active).

And the CC50 [6]?
The CC50 was 9.19 µM (active).

What about the AC50 (INS1) of the same molecule?
Its AC50 is 3.38 µM (active).

What about the AC50 [7] of the same molecule?
Its AC50 is 9.88 µM (active).

What about the IC50 [8] of the same molecule?
The IC50 was 9.1 µM (active).

Which results are given for `O=C(/C=C/Nc1ccccc1F)c1cccs1`?
EC50 [9]: 0.641 µM (active); EC50 [10]: 4.56 µM (active); IC50 (Protein skinhead-1): 14.7 µM (active); IC50 [11]: > 67.6 µM (inactive)

For `COC(=O)C12OCC34C(CC5C(C)=C(O)C(=O)CC5(C)C3C(O)C1O)OC(=O)C(OC(=O)C=C(C)C)C24` (stereo not drawn), which AC50 [12] is on record?
Its AC50 is < 0.26 µM (active).

What about the GI50 (P388/ADR) of the same molecule?
Its GI50 is > 500 µM (inactive).

And the AC50 [13]?
The AC50 was 0.687 µM (active).

What about the GI50 (SN12K1) of the same molecule?
The GI50 was 277 µM (inactive).

What about the GI50 (P388) of the same molecule?
The GI50 was > 500 µM (inactive).

And the IC50 (Protein skinhead-1)?
Its IC50 is 35.7 µM (active).

And the AC50 (Paired box protein Pax-8)?
The AC50 was < 0.26 µM (active).

And the IC50 [8]?
Its IC50 is 0.0223 µM (active).

For `N#Cc1c(N2CCNCC2)nc(-c2ccco2)c2c1CCCC2`, which AC50 [3] is on record?
Its AC50 is 6.11 µM (active).

For `CCCCNc1c(-c2ccc(OC)c(SC(C)CC)c2)nc2ccc(C)cn12` (stereo not drawn), which AC50 [14] is on record?
Its AC50 is 6.87 µM (active).

And the EC50 [15]?
Its EC50 is 15.4 µM (active).

What about the AC50 (INS1) of the same molecule?
Its AC50 is 4.34 µM (active).

For `Cc1cc(C(=O)Nc2cccc3c2O[C@H](CN(C)Cc2ccc(Oc4ccccc4)cc2)[C@@H](C)CN([C@H](C)CO)C3=O)n(C)n1`, which AC50 (Paired box protein Pax-8) is on record?
The AC50 was 13.2 µM (active).

And the AC50 [16]?
The AC50 was > 70 µM (inactive).

Which AC50 [3] does the source give for `CC(=O)N1[C@@H]2c3ccc(/C=C/c4ccccc4)c(=O)n3C[C@H]1[C@H](CO)[C@H]2C(=O)N1CCOCC1` here?
Its AC50 is 3.12 µM (active).

For `C[C@H](CO)N1C[C@H](C)[C@H](CN(C)C(=O)Nc2cc(F)ccc2F)Oc2cc(/C=C/c3ccccc3)ccc2S1(=O)=O`, which AC50 [17] is on record?
Its AC50 is 2.62 µM (active).

And the AC50 [18]?
The AC50 was 86.7 µM (active).

What about the AC50 [19] of the same molecule?
The AC50 was 1.77 µM (active).

And the AC50 [20]?
Its AC50 is 0.962 µM (active).

And the AC50 [21]?
Its AC50 is 2.06 µM (active).

Which results are given for `COc1cccc(CN2CCCCN3[C@H](CO)[C@@H](c4ccc(C#Cc5cccnc5)cc4)[C@@H]3C2)c1`?
AC50 [17]: 2.2 µM (active); AC50 [18]: 22.7 µM (active); AC50 [19]: 1.34 µM (active); AC50 [20]: 0.427 µM (active); AC50 [21]: 1.21 µM (active)

With `N#C[C@H]1[C@@H](c2ccc(C#Cc3ccccc3F)cc2)[C@@H](CO)N1C(=O)C1CCC1` as the molecule, how does the AC50 [17] read?
The AC50 was 0.779 µM (active).

And the AC50 [18]?
The AC50 was 44.9 µM (active).

What about the AC50 [19] of the same molecule?
The AC50 was 1.57 µM (active).

What about the AC50 [20] of the same molecule?
The AC50 was 0.613 µM (active).

And the AC50 [21]?
The AC50 was 1.04 µM (active).
